Legend:
[1] = molecular target: T1, MVP (Methanosarcina mazei, UniProt Q8PYZ8); assay: colorimetric orthophosphate release; fit of MWC-derived Equation […]; type: biochemical; settings: read-out: KR
T1 construct: gene hppA1; InvGFPMVP: N-terminal signal peptide of yeast Suc2p + yEGFP + MVP; stripped microsomal membranes of S. cerevisiae YPC6; homodimer

[2] = molecular target: T2, AVP1 (Arabidopsis thaliana, UniProt P31414); assay: as above; type: biochemical; settings: read-out: KR
T2 construct: InvGFPAVP1: N-terminal signal peptide of yeast Suc2p + yEGFP + AVP1; stripped microsomal membranes of S. cerevisiae YPC6; homodimer
T2 sequence (P31414 1-770): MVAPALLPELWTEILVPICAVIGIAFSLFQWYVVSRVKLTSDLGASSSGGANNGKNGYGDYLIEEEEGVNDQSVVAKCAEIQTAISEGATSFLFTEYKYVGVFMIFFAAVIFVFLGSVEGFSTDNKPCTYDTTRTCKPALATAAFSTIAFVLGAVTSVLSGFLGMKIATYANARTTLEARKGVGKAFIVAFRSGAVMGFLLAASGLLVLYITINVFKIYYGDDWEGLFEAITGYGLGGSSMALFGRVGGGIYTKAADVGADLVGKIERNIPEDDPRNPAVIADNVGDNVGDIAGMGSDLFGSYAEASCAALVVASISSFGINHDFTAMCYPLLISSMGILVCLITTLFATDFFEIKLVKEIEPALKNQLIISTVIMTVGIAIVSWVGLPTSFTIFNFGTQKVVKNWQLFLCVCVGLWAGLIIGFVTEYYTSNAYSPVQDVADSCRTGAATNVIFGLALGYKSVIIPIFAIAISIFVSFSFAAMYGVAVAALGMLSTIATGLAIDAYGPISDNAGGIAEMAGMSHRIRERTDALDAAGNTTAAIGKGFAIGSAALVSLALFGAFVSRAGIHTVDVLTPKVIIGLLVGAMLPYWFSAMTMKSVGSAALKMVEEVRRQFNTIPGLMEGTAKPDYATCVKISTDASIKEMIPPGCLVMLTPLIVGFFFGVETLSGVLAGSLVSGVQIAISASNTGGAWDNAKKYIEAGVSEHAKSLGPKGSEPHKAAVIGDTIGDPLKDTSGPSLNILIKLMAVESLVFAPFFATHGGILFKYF

T1 sequence (Q8PYZ8 whole entry): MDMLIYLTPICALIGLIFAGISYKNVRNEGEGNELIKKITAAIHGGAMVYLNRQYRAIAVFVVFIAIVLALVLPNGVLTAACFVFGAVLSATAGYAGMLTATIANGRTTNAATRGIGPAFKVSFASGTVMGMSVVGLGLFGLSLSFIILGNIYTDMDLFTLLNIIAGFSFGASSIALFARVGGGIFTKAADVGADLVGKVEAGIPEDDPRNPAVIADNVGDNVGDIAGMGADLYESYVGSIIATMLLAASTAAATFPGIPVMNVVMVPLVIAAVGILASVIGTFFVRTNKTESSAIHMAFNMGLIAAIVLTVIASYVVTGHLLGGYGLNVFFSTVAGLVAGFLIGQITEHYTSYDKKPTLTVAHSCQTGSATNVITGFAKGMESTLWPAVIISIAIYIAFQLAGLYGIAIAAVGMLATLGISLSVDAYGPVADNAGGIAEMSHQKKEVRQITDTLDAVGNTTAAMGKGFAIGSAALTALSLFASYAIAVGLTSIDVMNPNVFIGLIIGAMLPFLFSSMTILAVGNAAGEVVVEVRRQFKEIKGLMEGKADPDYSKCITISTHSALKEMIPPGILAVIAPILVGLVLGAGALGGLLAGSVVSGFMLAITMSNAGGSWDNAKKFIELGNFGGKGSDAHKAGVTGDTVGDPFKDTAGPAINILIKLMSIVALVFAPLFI

O=P(O)(O)OP(=O)(O)O [Mg2PPi]
Kd [1]: 62 ± 8 µM
Kd [2]: 84 ± 9 µM
